# Results reported in patent US20080280837A1, “Biologically Active Compounds with Anti-Angiogenic Properties” (priority 2004, published 2008).
# Structures can show the parent of a compound that is named as a salt.
# System: chicken embryo chorioallantoic membrane (CAM) vasculature
# Assay: Early chicken embryo chorioallantoic membrane (earlyCAM) assay
# Type: in vivo
# Conditions: dose of 10 nmol
# Description: Vein diameter was included as a measure of vessel growth. Where there was more than one major vein branch, the diameters of both were added together to give a total vein diameter. In the control CAM there were two well developed vein branches of similar diameter. In contrast, in the treated CAM there was a single major vein branch. Total vein diameter is 239 pixels in the control CAM, and only 107 pixels in the treated CAM.
# When “compound 1” was applied to the CAM, there were dose responsive reductions in CAM growth and vasculature. The effects on CAM growth and vessel parameters were expressed as pixel measures (Table 1) and also as a percentage of the vehicle treated control group (FIG. 1). Vein lengths were reduced at all dose levels of “compound 1”, both in pixel and percentage terms, with a reduction to 67% of control at 5 nmol (p<0.05). […] When artery and vein lengths were combined to give total vessel length there was a significant reduction at the 5 nmol level (FIG. 1; p<0.05). A strong trend to reduced CAM growth with increasing doses of “compound 1” was also present.
row,Compound,Effect on the CAM vasculature
1,octeotride [reference compound],did not appear to have any significant effect

# System: not listed separately
# Assay: Solubility of salts of compound 1
# Type: physicochemical
# Conditions: 5% Glucose, Day 3
row,Compound,Solubility in 5% Glucose [µg/mL]
1,COC[C@H]1O[C@H](OCCc2ccccc2)[C@H](NC(=O)CCCN)[C@@H](OCc2ccc3ccccc3c2)[C@@H]1O [Succinate],4980
2,COC[C@H]1O[C@H](OCCc2ccccc2)[C@H](NC(=O)CCCN)[C@@H](OCc2ccc3ccccc3c2)[C@@H]1O [TFA],5270

# Same assay, conditions: 5% glucose, saline or isotonic, 5% Glucose, Day 3
row,Compound,solubility at 3 day [µg/mL]
1,COC[C@H]1O[C@H](OCCc2ccccc2)[C@H](NC(=O)CCCN)[C@@H](OCc2ccc3ccccc3c2)[C@@H]1O [Hydrochloride],6300

# Same assay, conditions: Water, overnight
row,Compound,Solubility in Water [µg/mL]
1,COC[C@H]1O[C@H](OCCc2ccccc2)[C@H](NC(=O)CCCN)[C@@H](OCc2ccc3ccccc3c2)[C@@H]1O [Acetate],6960
2,COC[C@H]1O[C@H](OCCc2ccccc2)[C@H](NC(=O)CCCN)[C@@H](OCc2ccc3ccccc3c2)[C@@H]1O [Citrate],4540
3,COC[C@H]1O[C@H](OCCc2ccccc2)[C@H](NC(=O)CCCN)[C@@H](OCc2ccc3ccccc3c2)[C@@H]1O [Hydrochloride],7870
4,COC[C@H]1O[C@H](OCCc2ccccc2)[C@H](NC(=O)CCCN)[C@@H](OCc2ccc3ccccc3c2)[C@@H]1O [Succinate],8520
5,COC[C@H]1O[C@H](OCCc2ccccc2)[C@H](NC(=O)CCCN)[C@@H](OCc2ccc3ccccc3c2)[C@@H]1O [TFA],3640
